Measurements: US9944019B2, “Tip-loaded microneedle arrays for transdermal insertion” (University of Pittsburgh—Of the Commonwealth System of …, priority 2012, dated 2018)

System: epidermal cells
Test: Apoptosis in living human skin organ cultures, green fluorescent TUNEL assay
Assay type: cell-based
Details: arrays removed after 5 minutes, 72 hours of exposure; pyramidal CMC-microneedle arrays
Protocol: Cytoxan® was integrated at a concentration of 5 mg/g of CMC, enabling delivery of approximately about 140 μg per array. This is a therapeutically relevant concentration based on the area of skin targeted, yet well below levels associated with systemic toxicities. Living human skin organ cultures were used to assess the cytotoxicty of Cytoxan®. Cytoxan® was delivered by application of arrays to skin explants as we previously described. Arrays and residual material were removed 5 minutes after application, and after 72 hours of exposure, culture living skin explants were cryo-sectioned and fixed.

Compound: O=P1(N(CCCl)CCCl)NCCCO1 (stereo not shown) [Cytoxan®, cyclophosphamide]
- apoptosis (TUNEL): extensive apoptosis of epidermal cells
